Assay results published in patent publication US20120245155A1, “FUSED HETEROCYCLIC COMPOUND HAVING AMINO GROUP” (Shionogi & Co., Ltd., priority 2009, published 2012).
pIC50: −log10 of the molar value.

How the values were obtained:
[1] = system: Neuroblastoma SH—SY5Y cells (SH/APPwt) with human wild-type β-APP excessively expressed; assay: Measurement of β-amyloid (Aβ) production inhibitory effect in cell; format: cell-based; details: 24 hours incubation, Amyloid β 1-40 by HTRF, read-out: amount needed to inhibit Aβ production by 50% (IC50)
Description: Neuroblastoma SH—SY5Y cells (SH/APPwt) with human wild-type p-APP excessively expressed therein were prepared at 8×10^5 cells/mL, and 150 μl portions thereof were inoculated into each well of a 96-well culture plate (Falcon). The cells were cultured for 2 hours at 37° C. in a 5% gaseous carbon dioxide incubator. Then, a solution which had been preliminarily prepared by adding and suspending the test compound (DMSO (dimethyl sulfoxide) solution) so as to be 2 μl/50 μl medium was added to the cell sap. Namely, the final DMSO concentration was 1%, and the amount of the cell culture was 200 μl. After the incubation was performed for 24 hours from the addition of the test compound, 100 μl of the culture supernatant was collected from each fraction. The amount of the Aβ in each fraction was measured.
The Aβ amount was measured as follows. 10 μl of a homogeneous time resolved fluorescence (HTRF) measurement reagent (Amyloid β 1-40 peptide; IBA Molecular Holding, S. A.) and 10 μl of the culture supernatant were put into a 384-well half area microplate (black microplate, Costar) and mixed with each other, and then left standing overnight at 4° C. while the light was shielded. Then, the fluorescence intensity (excitation wavelength: 337 nm, measurement wavelength: 620 nm and 665 nm) was measured with a Wallac 1420 multilabel counter (Perkin Elmer life sciences). The Aβ amount was determined from the count rate at each measurement wavelength (10000× Count 665/Count 620), and the amount needed to inhibit Aβ production by 50% (IC50) was calculated from at least six different dosages.

Recombinant human BACE1 = target: T1, Recombinant human BACE1 (Homo sapiens, UniProt P56817); assay: Assay of BACE 1 inhibiting activity; format: biochemical; details: Recombinant human BACE1 7.4 nmol/L, substrate peptide 18 nmol/L, pH 5.0, 30° C., 3 hours; read-out: 50% inhibitory concentration against the enzymatic activity (IC50)
T1 construct: purchased R&D Systems
T1 sequence (P56817 46-501): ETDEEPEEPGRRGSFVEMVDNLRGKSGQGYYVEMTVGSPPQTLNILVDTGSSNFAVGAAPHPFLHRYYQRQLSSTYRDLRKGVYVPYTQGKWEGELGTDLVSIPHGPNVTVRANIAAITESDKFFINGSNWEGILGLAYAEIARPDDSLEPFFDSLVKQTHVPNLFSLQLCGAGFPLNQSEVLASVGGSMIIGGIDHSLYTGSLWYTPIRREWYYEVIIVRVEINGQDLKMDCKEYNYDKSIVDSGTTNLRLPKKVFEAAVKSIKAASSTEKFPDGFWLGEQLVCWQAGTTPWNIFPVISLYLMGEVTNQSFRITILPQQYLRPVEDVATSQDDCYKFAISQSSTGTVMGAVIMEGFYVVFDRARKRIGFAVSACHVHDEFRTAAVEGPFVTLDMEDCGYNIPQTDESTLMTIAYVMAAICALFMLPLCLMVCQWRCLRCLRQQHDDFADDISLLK
Description: 48.5 μL of substrate peptide solution (Biotin-XSEVNLDAEFRHDSGC-Eu: X═ε-amino-n-capronic acid, Eu=Europium cryptate) was added to each well of 96-hole half-area plate (a black plate: Costar), and after addition of 0.5 μl of the test compound (dissolved in […]) and 1 μl of Recombinant human BACE1 (R&D Systems), the reaction mixture was incubated at 30° C. for 3 hours. The substrate peptide was synthesized by reacting Cryptate TBPCOOH mono SMP (CIS bio international) with Biotin-XSEVNLDAEFRHDSGC (Peptide Institute, Inc.). The final concentrations of the substrate peptide and Recombinant human BACE1 were adjusted to 18 nmol/L and 7.4 nmol/L, respectively, and the reaction was performed in sodium acetate buffer (50 mmol/L sodium acetate, pH 5.0, 0.008% Triton X-100).
After the incubation for reaction, 50 μl of 8.0 μg/ml Streptavidin-XL665 (CIS bio international) dissolved in phosphate buffer (150 mmol/L K2 HPO4—KH2PO4, pH 7.0, 0.008% Triton X-100, 0.8 mol/L KF) was added to each well and left stand at 30° C. for an hour. After then, fluorescence intensity was measured (excitation wavelength: 320 nm, measuring wavelength: 620 nm and 665 nm) using Wallac 1420 multilabel counter (Perkin Elmer life sciences). Enzymatic activity was determined from counting ratio of each wavelength (10,000× Count 665/Count 620) and 50% inhibitory concentration against the enzymatic activity was calculated.

[2] = Metabolism stability test; format: in vitro ADME; details: human liver microsomes 0.5 mg protein/mL, 1 mmol/L NADPH, 37° C., 30 minutes; 0 minute = 100%
Description: Using commercially available pooled human hepatic microsomes, a test compound is reacted for a constant time, a remaining rate is calculated by comparing a reacted sample and an unreacted sample, thereby, a degree of metabolism in liver is assessed.
A reaction is performed (oxidative reaction) at 37° C. for 0 minute or 30 minutes in the presence of 1 mmol/L NADPH in 0.2 mL of a buffer (50 mmol/L Tris-HCl pH 7.4, 150 mmol/L potassium chloride, 10 mmol/L magnesium chloride) containing 0.5 mg protein/mL of human liver microsomes. After the reaction, 50 μL of the reaction solution is added to 100 μL of a methanol/acetonitrile=1/1 (v/v), mixed and centrifuged at 3000 rpm for 15 minutes. The test compound in the supernatant is quantified by LC/MS/MS, and a remaining amount of the test compound after the reaction is calculated, letting a compound amount at 0 minute reaction time to be 100%.

CYP2C9 = target: T2, CYP2C9 (Homo sapiens, UniProt P11712); assay: CYP inhibition test (tolbutamide methyl-hydroxylation); format: in vitro ADME; details: pooled human hepatic microsome, test drug concentration 1, 5, 10, 20 μmol/L
T2 construct: enzyme, pooled human hepatic microsome 0.2 mg protein/mL; from tissue; host or cells: pooled human hepatic microsome
T2 sequence (P11712 whole entry): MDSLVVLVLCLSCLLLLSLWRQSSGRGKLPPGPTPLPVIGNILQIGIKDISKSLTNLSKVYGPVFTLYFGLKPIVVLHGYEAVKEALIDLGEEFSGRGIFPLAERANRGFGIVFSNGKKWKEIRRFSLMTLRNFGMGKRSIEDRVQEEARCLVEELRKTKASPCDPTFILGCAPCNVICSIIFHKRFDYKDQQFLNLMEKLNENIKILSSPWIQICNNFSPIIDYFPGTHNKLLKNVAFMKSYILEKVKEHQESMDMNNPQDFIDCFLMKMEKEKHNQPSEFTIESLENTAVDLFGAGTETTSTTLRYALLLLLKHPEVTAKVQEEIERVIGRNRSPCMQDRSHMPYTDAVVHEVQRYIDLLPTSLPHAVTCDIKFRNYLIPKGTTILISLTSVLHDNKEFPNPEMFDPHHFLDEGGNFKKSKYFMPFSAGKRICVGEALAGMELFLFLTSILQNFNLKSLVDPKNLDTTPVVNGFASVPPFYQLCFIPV
Description: (§1) Using commercially available pooled human hepatic microsome, and employing, as markers, 7-ethoxyresorufin O-deethylation (CYP1A2), tolbutamide methyl-hydroxylation (CYP2C9), mephenyloin 4′-hydroxylation (CYP2C19), dextromethorphan O-demethylation (CYP2D6), and terfenadine hydroxylation (CYP3A4) as typical substrate metabolism reactions of human main five CYP enzyme forms (CYP1A2, 2C9, 2C19, 2D6, 3A4), an inhibitory degree of each metabolite production amount by a test compound was assessed. […] After the centrifugation at 3000 rpm for 15 minutes, resorufin (CYP1A2 metabolite) in the supernatant was quantified by a fluorescent multilabel counter and tolbutamide hydroxide (CYP2C9 metabolite), mephenyloin 4′ hydroxide (CYP2C19 metabolite), dextrorphan (CYP2D6 metabolite), and terfenadine alcohol (CYP3A4 metabolite) were quantified by LC/MS/MS. Addition of only DMSO being a solvent dissolving a drug to a reaction system was adopted as a control (100%), remaining activity (%) was calculated at each concentration of a test drug added as the solution and IC50 was calculated by reverse presumption by a logistic model using a concentration and an inhibition rate.

CYP1A2 = target: T3, CYP1A2 (Homo sapiens, UniProt P05177); assay: CYP inhibition test (7-ethoxyresorufin O-deethylation); format: in vitro ADME; details: pooled human hepatic microsome, test drug concentration 1, 5, 10, 20 μmol/L
T3 construct: enzyme, pooled human hepatic microsome 0.2 mg protein/mL; from tissue; host or cells: pooled human hepatic microsome
T3 sequence (P05177 1-516): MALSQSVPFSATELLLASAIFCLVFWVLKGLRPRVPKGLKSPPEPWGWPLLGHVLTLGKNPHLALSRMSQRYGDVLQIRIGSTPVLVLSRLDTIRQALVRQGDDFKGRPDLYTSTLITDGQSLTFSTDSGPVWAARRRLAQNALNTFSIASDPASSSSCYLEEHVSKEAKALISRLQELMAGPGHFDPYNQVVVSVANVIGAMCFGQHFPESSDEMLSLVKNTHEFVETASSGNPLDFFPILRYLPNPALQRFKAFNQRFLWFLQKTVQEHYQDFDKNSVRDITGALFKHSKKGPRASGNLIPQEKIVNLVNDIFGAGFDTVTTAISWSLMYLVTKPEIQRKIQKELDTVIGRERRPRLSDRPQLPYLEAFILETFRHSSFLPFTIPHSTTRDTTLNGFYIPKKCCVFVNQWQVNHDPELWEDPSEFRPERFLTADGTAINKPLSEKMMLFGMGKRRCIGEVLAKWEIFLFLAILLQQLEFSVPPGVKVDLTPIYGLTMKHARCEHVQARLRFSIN
Description: as §1

CYP2C19 = target: T4, CYP2C19 (Homo sapiens, UniProt P33261); assay: CYP inhibition test (mephenytoin 4'-hydroxylation); format: in vitro ADME; details: pooled human hepatic microsome, test drug concentration 1, 5, 10, 20 μmol/L
T4 construct: enzyme, pooled human hepatic microsome 0.2 mg protein/mL; from tissue; host or cells: pooled human hepatic microsome
T4 sequence (P33261 whole entry): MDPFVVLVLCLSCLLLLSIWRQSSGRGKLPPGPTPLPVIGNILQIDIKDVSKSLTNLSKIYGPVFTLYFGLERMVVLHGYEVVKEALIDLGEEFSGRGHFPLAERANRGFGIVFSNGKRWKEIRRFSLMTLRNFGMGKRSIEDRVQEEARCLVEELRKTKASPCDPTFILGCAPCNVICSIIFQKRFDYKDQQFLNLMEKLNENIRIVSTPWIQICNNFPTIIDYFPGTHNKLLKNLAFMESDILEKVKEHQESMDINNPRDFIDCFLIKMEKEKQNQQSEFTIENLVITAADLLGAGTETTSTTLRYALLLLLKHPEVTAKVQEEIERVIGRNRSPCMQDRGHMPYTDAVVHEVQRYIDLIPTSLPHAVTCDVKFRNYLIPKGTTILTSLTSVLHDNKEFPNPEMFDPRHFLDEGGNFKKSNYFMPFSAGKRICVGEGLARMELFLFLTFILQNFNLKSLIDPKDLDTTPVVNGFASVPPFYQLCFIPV
Description: as §1

CYP2D6 = target: T5, CYP2D6 (Homo sapiens, UniProt P10635); assay: CYP inhibition test (dextromethorphan O-demethylation); format: in vitro ADME; details: pooled human hepatic microsome, test drug concentration 1, 5, 10, 20 μmol/L
T5 construct: enzyme, pooled human hepatic microsome 0.2 mg protein/mL; from tissue; host or cells: pooled human hepatic microsome
T5 sequence (P10635 whole entry): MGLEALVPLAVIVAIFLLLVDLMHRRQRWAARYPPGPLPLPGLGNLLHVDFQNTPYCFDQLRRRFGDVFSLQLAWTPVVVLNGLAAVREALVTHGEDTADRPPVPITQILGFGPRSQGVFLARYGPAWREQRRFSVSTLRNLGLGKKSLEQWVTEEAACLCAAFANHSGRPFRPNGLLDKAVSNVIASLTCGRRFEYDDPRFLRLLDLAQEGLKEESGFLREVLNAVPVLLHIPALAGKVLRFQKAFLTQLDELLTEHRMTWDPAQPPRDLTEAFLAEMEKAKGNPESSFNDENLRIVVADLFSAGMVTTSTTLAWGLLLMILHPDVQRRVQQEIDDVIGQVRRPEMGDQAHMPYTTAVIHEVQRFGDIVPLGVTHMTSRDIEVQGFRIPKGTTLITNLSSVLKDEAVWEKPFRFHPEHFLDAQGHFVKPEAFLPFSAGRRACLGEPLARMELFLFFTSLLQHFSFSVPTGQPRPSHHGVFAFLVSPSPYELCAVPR
Description: as §1

CYP3A4 [3] = target: T6, CYP3A4 (Homo sapiens, UniProt P08684); assay: CYP inhibition test (terfenadine hydroxylation); format: in vitro ADME; parameters: enzyme, pooled human hepatic microsome 0.2 mg protein/mL; from tissue; host or cells: pooled human hepatic microsome; details: pooled human hepatic microsome, test drug concentration 1, 5, 10, 20 μmol/L
T6 sequence (P08684 whole entry): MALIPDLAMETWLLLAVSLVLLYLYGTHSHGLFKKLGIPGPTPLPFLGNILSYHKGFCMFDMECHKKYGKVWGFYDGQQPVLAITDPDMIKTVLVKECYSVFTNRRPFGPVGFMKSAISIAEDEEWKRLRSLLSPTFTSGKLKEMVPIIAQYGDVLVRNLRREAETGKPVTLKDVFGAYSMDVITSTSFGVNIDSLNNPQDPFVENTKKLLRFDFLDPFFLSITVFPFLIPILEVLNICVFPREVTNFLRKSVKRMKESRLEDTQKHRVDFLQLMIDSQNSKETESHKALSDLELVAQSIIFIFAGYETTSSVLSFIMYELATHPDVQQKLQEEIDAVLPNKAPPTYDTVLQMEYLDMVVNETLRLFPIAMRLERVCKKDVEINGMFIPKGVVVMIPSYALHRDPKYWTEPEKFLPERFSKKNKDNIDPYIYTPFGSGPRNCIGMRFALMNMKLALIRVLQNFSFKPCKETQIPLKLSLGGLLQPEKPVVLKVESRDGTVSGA
Description: as §1

CYP3A4 [4] = target: T6, CYP3A4; assay: CYP3A4 fluorescent MBI test; format: in vitro ADME; parameters: host or cells: Escherichia coli; details: CYP3A4 expressed in Escherichia coli, substrate 7-BFC, pre-reaction 0 or 30 minutes
Description: The CYP3A4 fluorescent MBI test is a test of investigating enhancement of CYP3A4 inhibition of a compound by a metabolism reaction, and the test was performed using, as CYP3A4 enzyme expressed in Escherichia coli and employing, as an index, a reaction in which 7-benzyloxytrifluoromethylchmarin (7-BFC) is debenzylated by the CYP3A4 enzyme to produce a metabolite, 7-hydroxytrifluoromethylchmarin (HFC) emitting fluorescent light.
The reaction conditions were as follows: substrate, 5.6 μmol/L 7-BFC; pre-reaction time, 0 or 30 minutes; reaction time, 15 minutes; reaction temperature, 25° C. […]
An enzyme in a K-Pi buffer (pH 7.4) and a test drug solution as a pre-reaction solution were added to a 96-well plate at the composition of the pre-reaction, a part of it was transferred to another 96-well plate so that it was 1/10 diluted by a substrate in a K-Pi buffer, NADPH as a co-factor was added to initiate a reaction as an index (without preincubation) and, after a predetermined time of a reaction, acetonitrile/0.5 mol/L Tris(trishydroxyaminomethane)=4/1 was added to stop the reaction. […] For the plate on which each index reaction had been performed, a fluorescent value of 7-HFC which is a metabolite was measured with a fluorescent plate reader. […]

SMILES	pIC50 [1]	pIC50 (Recombinant human BACE1)	further results
N#Cc1ccc(C(=O)Nc2ccc(F)c(C34CCCC3COC(N)=N4)c2)nc1 (racemic) [Compound I-38]	≥ 6.00	≥ 6.00	–
C=C1SC(N)=NC2(c3cc(NC(=O)c4ccc(C#N)cn4)ccc3F)COCC12 (racemic) [Compound I-3]	≥ 6.00	7.54	–
CC#CCOc1cnc(C(=O)Nc2ccc(F)c(C34COCC3COC(N)=N4)c2)cn1 (racemic) [Compound I-37]	9.00	–	–
NC1=NC2(c3cc(-c4cccnc4F)ccc3F)COCC2CO1 (racemic) [Compound I-42]	≥ 6.00	–	remaining amount of the test compound after the reaction [2]: 94.7%
CNC(=O)c1ccc(-c2ccc(F)c(C34COCC3COC(N)=N4)c2)cn1 (racemic) [Compound I-43]	≥ 6.00	–	–
NC1=NC2(c3cc(NC(=O)c4ccc(OC(F)F)cn4)ccc3F)CCCC2CO1 (centres unmarked) [Compound I-46]	≥ 6.00	–	–
Cc1cnc(C(=O)Nc2ccc(F)c(C34COCC3COC(N)=N4)c2)cn1 (racemic) [Compound I-34]	≥ 6.00	–	–
N#Cc1ccc(C(=O)Nc2ccc(F)c(C34COCC3COC(N)=N4)c2)nc1 (racemic) [Compound I-33]	≥ 6.00	≥ 6.00	pIC50 (CYP2C9): < 4.70; pIC50 (CYP1A2): < 4.70; pIC50 (CYP2C19): < 4.70; pIC50 (CYP2D6): < 4.70; pIC50 (CYP3A4 [3]): < 4.70
NC1=NC2(c3cc(-c4cncc(Cl)c4)ccc3F)COCC2CO1 (racemic) [Compound I-45]	≥ 6.00	–	–
COc1cncc(-c2ccc(F)c(C34COCC3COC(N)=N4)c2)c1 (racemic) [Compound I-44]	≥ 6.00	–	CYP3A4 MBI: difference of IC50 value with and without preincubation (CYP3A4 [4]): (−) (When the difference was 3 μM or less, the result was defined as (−))
COc1cncc(-c2ccc(F)c(C34CCCC3COC(N)=N4)c2)c1 (racemic) [Compound I-41]	≥ 6.00	–	–
COc1cnc(C(=O)Nc2ccc(F)c(C34COCC3COC(N)=N4)c2)cn1 (racemic) [Compound I-35]	≥ 6.00	≥ 6.00	–
NC1=NC2(c3cc(-c4cccnc4F)ccc3F)CCCC2CO1 (racemic) [Compound I-40]	≥ 6.00	–	–
NC1=NC2(c3cc(NC(=O)c4ccc(Cl)cn4)ccc3F)COCC2CO1 (racemic) [Compound I-36]	≥ 6.00	≥ 6.00	–
